Data taken from US20050049197A1, “Induction of immune response against desired determinants” (Epimmune Inc., priority 1993, published 2005).
“And” between values parts separate entries of the source, which are not always exact repeats. Equal entries are not always repeated.

What was measured:
DQ3.1 = test system: DQ3.1; parameters: species or system human; settings: read-out: Binding Activity DQ3.1, IC50
DR5 = test system: DR5; parameters: species or system human; settings: read-out: Binding Activity DR5, IC50
[1] = test system: PBMC from normal individuals; assay: In vitro T cell proliferative responses of human PBMC ([3H]thymidine incorporation); assay type: cell-based; settings: for AVERAGE S.I. / AVERAGE ΔMAX CPM: average of 5 donors; for X144 (Δmax cpm) / X144 S.I.: donor X144; for X162 (Δmax cpm) / X162 S.I.: donor X162; for X349 (Δmax cpm) / X349 S.I.: donor X349; for X372 (Δmax cpm) / X372 S.I.: donor X372; for X460 (Δmax cpm) / X460 S.I.: donor X460
DR1 = DR1 (Homo sapiens, UniProt P01903+P01911, A100R/D57E/F55L/F60I/F76Y/I96L/L162R/M171V/P40L/Q125E/R42F/V115G/Y59C); assay: biochemical; assay type: binding
DR4w4 = DR4w4 (Homo sapiens, UniProt P01903+P01911, A100K/A169T/F76Y/I96L/K127E/L162R/M171V/N62H/P40V/Q125Y/R42H/S133A/S149N/S66Y/V115G/V209L/W38E); assay: biochemical; assay type: binding
DR2w2b = test system: DR2w2b; parameters: species or system human; settings: read-out: Binding Activity DR2wB2, IC50
DR3 = test system: DR3; parameters: species or system human; settings: read-out: Binding Activity DR3, IC50
DRw53 = DRw53 (Homo sapiens, UniProt P01903+P13762); assay: biochemical; assay type: binding
IAk = IAk (Mus musculus, UniProt P01910+P06343); assay: biochemical
P. yoelii sporozoites = assay: Inhibition of liver stage development assay (ILSDA), mouse hepatocytes infected with P. yoelii sporozoites; assay type: cell-based; settings: sera of immunized mice, mouse hepatocytes
Procedure: (§1) In certain experiments, peptides were emulsified in complete Freund's adjuvant (CFA) and injected subcutaneously (S.C.) at the base of the tail in 100 μl volume containing 100 μg of peptide. Mice were boosted with 100 μg of peptide emulsified in 100 μl of incomplete Freund's adjuvant (IFA) 1 month later. Mice were bled just prior to boosting, and 2 weeks after boosting.
All cell culture reagents were obtained from quality Biological, Gaithersburg, Md. The slides were incubated overnight at 37° C. in a 5% CO2/95% air environment. The medium was changed the following day and fresh medium containing dexamethasone (7×10^−5) was added to the cultures.
(§2) The 17XNL (nonlethal) strain of P. yoelii or the NF54 strain of P. falciparum were used for murine and human hepatocyte in vitro infections, respectively.
(§3) Briefly, 25 μl of the serum samples, diluted to 2× their final concentration, were added to triplicate chamber-slide wells. P. yoeilli or P. falciparum sporozoites, 75,000/well, were then added in a volume of 25 μl to the mouse or human hepatocyte cultures respectively. The cultures were incubated for 3 h, then washed extensively with fresh medium to remove unattached sporozoites. The infected hepatocytes were then incubated for a further 2 (P. yoelii) or 5 days (P. falciparum) with the medium being changed each day of culture. The slides were fixed and immunostained with either a P. yoelii- or P. falciparum-specific monoclonal antibody. Schizonts were counted from the triplicate cultures and the percent inhibition determined as follows: control−test/control×100. Sera from mice injected with CFA (first dose) and IFA (second and third doses) served as the negative controls.

[2] = test system: P. falciparum sporozoites; assay: Inhibition of liver stage development assay (ILSDA), human hepatocytes infected with P. falciparum sporozoites; assay type: cell-based; settings: sera of C57BL/6 mice immunized with peptide in CFA/IFA, final dilution 1:100
Procedure: as §1
Human hepatocytes were isolated from nontransplantable liver tissue donated for research. […] The hepatocytes were allowed to attach and spread overnight with the media being changed the following day.
as §2, §3

[3] = test system: air-dried P. yoelii sporozoites; settings: in vivo
[4] = test system: P. yoelii 17XNL sporozoites; settings: in vivo

Row | Compound | IC50 (DQ3.1) [nM] | IC50 (DR5) [nM] | AVERAGE S.I. ([1]; 2nd Stimulation) | AVERAGE ΔMAX CPM ([1]; 2nd Stimulation) [cpm] | X144 (Δmax cpm) ([1]; 2nd Stimulation) [cpm] | X144 S.I. ([1]; 2nd Stimulation) | X162 (Δmax cpm) ([1]; 2nd Stimulation) [cpm] | X162 S.I. ([1]; 2nd Stimulation) | X349 (Δmax cpm) ([1]; 2nd Stimulation) [cpm] | X349 S.I. ([1]; 2nd Stimulation) | X372 (Δmax cpm) ([1]; 2nd Stimulation) [cpm] | X372 S.I. ([1]; 2nd Stimulation) | X460 (Δmax cpm) ([1]; 2nd Stimulation) [cpm] | X460 S.I. ([1]; 2nd Stimulation) | AVERAGE S.I. ([1]; 3rd Stimulation) | AVERAGE ΔMAX CPM ([1]; 3rd Stimulation) [cpm] | X144 (Δmax cpm) ([1]; 3rd Stimulation) [cpm] | X144 S.I. ([1]; 3rd Stimulation) | X162 (Δmax cpm) ([1]; 3rd Stimulation) [cpm] | X162 S.I. ([1]; 3rd Stimulation) | other results
1 | CC(C)C[C@H](NC(=O)[C@@H](NC(=O)[C@H](Cc1c[nH]c2ccccc12)NC(=O)[C@H](C)NC(=O)[C@H](C)NC(=O)[C@@H](NC(=O)[C@H](CC1CCCCC1)NC(=O)[C@H](CCCCN)NC(=O)[C@@H](C)N)C(C)C)[C@@H](C)O)C(=O)N[C@@H](CCCCN)C(=O)N[C@@H](C)C(=O)N[C@@H](C)C(=O)N[C@H](C)C(N)=O [965.10] | 25 | 11.1 | 3.9 | 25767 | 11663 | 1.8 | 20693 | 7.9 | 22133 | 3.5 | 44414 | 3.2 | 29933 | 3.3 | 11.5 | 31002 | 33159 | 14 | 34548 | 11 | X349 (Δmax cpm) ([1]; 3rd Stimulation): 38931 cpm; X349 S.I. ([1]; 3rd Stimulation): 3.5; X372 (Δmax cpm) ([1]; 3rd Stimulation): 36995 cpm; X372 S.I. ([1]; 3rd Stimulation): 15; X460 (Δmax cpm) ([1]; 3rd Stimulation): 11376 cpm; X460 S.I. ([1]; 3rd Stimulation): 15; IC50 (DR1): 1.2 nM; IC50 (DR4w4): 2.8 nM; IC50 (DR2w2b): 5.6 nM
2 | CC(C)C[C@H](NC(=O)[C@@H](NC(=O)[C@H](CCCCN)NC(=O)[C@H](C)NC(=O)[C@H](C)NC(=O)[C@@H](NC(=O)[C@H](CC1CCCCC1)NC(=O)[C@H](CCCCN)NC(=O)[C@@H](C)N)C(C)C)[C@@H](C)O)C(=O)N[C@@H](CCCCN)C(=O)N[C@@H](C)C(=O)N[C@@H](C)C(=O)N[C@H](C)C(N)=O [965.14] | > 10000 | 3.4 | 1.5 | 5523 | 3570 | 1.1 | 4655 | 2.1 | 4421 | 1.3 | 10608 | 1.4 | 4365 | 1.4 | 2 | 10583 | 4319 | 2.3 | 10734 | 1.7 | X349 (Δmax cpm) ([1]; 3rd Stimulation): 17849 cpm; X349 S.I. ([1]; 3rd Stimulation): 2; X372 (Δmax cpm) ([1]; 3rd Stimulation): 19140 cpm; X372 S.I. ([1]; 3rd Stimulation): 2.1; X460 (Δmax cpm) ([1]; 3rd Stimulation): 874 cpm; X460 S.I. ([1]; 3rd Stimulation): 2; IC50 (DR4w4): 7.4 nM; IC50 (DR2w2b): 8 nM; IC50 (DR3): 781 nM; IC50 (DRw53): 52.8 nM
3 | CC[C@H](C)[C@H](NC(=O)CNC(=O)[C@H](Cc1ccc(O)cc1)NC(=O)[C@H](CC(=O)O)NC(=O)[C@@H](NC(=O)[C@H](CO)NC(=O)CNC(=O)[C@H](CC(=O)O)NC(=O)[C@@H](NC(=O)[C@H](CC(N)=O)NC(=O)[C@@H](N)Cc1ccc(O)cc1)[C@@H](C)O)[C@@H](C)O)C(=O)N[C@@H](CC(C)C)C(=O)N[C@@H](CCC(N)=O)C(=O)N[C@H](C(=O)N[C@@H](CC(N)=O)C(=O)N[C@@H](CO)C(=O)N[C@@H](CCCNC(=N)N)C(=O)O)[C@@H](C)CC [HEL 46-61] |  |  |  |  |  |  |  |  |  |  |  |  |  |  |  |  |  |  |  |  | IC50 (IAk): 20 nM
4 | (NANP)4 [PfB] |  |  |  |  |  |  |  |  |  |  |  |  |  |  |  |  |  |  |  |  | % Inhibition (P. yoelii sporozoites; dilution 1:100): 13.4%; Mean schizonts/well + S.D. (P. yoelii sporozoites; dilution 1:100): 71 ± 7 schizonts/well; % Inhibition (P. yoelii sporozoites; dilution 1:200): 6.2%; Mean schizonts/well + S.D. (P. yoelii sporozoites; dilution 1:200): 76 ± 7 schizonts/well; % Inhibition [2]: 80% and 79.7%; Mean schizonts/well ± S.D. [2]: 15.6 ± 8.7 schizonts/well
5 | G(QGPGAP)4 [PyB] |  |  |  |  |  |  |  |  |  |  |  |  |  |  |  |  |  |  |  |  | % Inhibition (P. yoelii sporozoites; dilution 1:100): 50%; Mean schizonts/well + S.D. (P. yoelii sporozoites; dilution 1:100): 41 + 3.8 schizonts/well; % Inhibition (P. yoelii sporozoites; dilution 1:200): 43.2%; Mean schizonts/well + S.D. (P. yoelii sporozoites; dilution 1:200): 46 + 4 schizonts/well; levels of antibodies against sporozoites and the PyCSP (immunogenicity, in words) [3]: poorly immunogenic; % Protected [4]: 12.5%; Infected/challenged [4]: 7/8; Mean schizonts/well ± S.D. [2]: 70 ± 14 schizonts/well
